Source: ChEMBL document CHEMBL5046245, “Identification of Pyruvate Carboxylase as the Cellular Target of Natural Bibenzyls with Potent Anticancer Activity against Hepatocellular Carcinoma via Metabolic Reprogramming” (J Med Chem, 2022)
Calls of active or inactive are those of the source. The rule behind the calls is not given here.

What was measured:
HepG2 [1] = test: Cytotoxicity against human HepG2 cells assessed as cell viability at 8 nM incubated for 48 hrs by MTT assay; format: functional, cell-based
HepG2 [2] = test: Antiproliferative activity against human HepG2 cells assessed as inhibition of cell growth measured after 48 hrs by MTT assay; format: functional, cell-based; details: HepG2, 48 h
[3] = Inhibition of pyruvate carboxylase in human HCCLM3 cell lysate measured upto 24 hrs by PC assay kit; format: subcellular
[4] = Antiproliferative activity against human HCCLM3 cells assessed as inhibition of cell growth measured after 48 hrs by MTT assay; format: functional, cell-based; details: HCCLM3, 48 h
[5] = Inhibition of pyruvate carboxylase in human HCCLM3 cells measured upto 24 hrs by PC assay kit; format: cell-based
HepG2 [6] = test: Competitive inhibition of recombinant pyruvate carboxylase in human HepG2 cell lysate in presence of Erianin at 20 uM for 120 mins followed by irradiation of 365 nm UV light for 15 min by Native -PAGE analysis; format: subcellular
HepG2 [7] = test: Cytotoxicity against human HepG2 cells assessed as cell viability at 1 to 4 nM incubated for 2 hrs by MTT assay; format: functional, cell-based; details: dose 1-4 nM
[8] = Non-competitive inhibition of pyruvate carboxylase (unknown origin); parameters: species or system Homo sapiens
[9] = Competitive inhibition of pyruvate carboxylase (unknown origin) assessed as inhibition constant at varying concentrations of ATP; parameters: species or system Homo sapiens
HepG2 [10] = test: Cytotoxicity against human HepG2 cells assessed as cell viability at 62.5 to 250 nM preincubated for 48 hrs by MTT assay; format: functional, cell-based; details: dose 62.5-250 nM
[11] = Inhibition of pyruvate carboxylase in human HepG2 cells measured upto 24 hrs by PC assay kit; format: cell-based
[12] = Inhibition of pyruvate carboxylase in human HepG2 cell lysate measured upto 24 hrs by PC assay kit; format: subcellular

| SMILES | IC50 (HepG2 [2]) [nM] | IC50 [3] [nM] | IC50 [4] [nM] | also measured |
| --- | --- | --- | --- | --- |
| COc1ccc(CC(CCNC(=O)CNC(=O)[C@H](CCCCNC(=O)CCCC[C@@H]2SC[C@@H]3NC(=O)N[C@@H]32)NC(=O)c2ccc(N=[N+]=[N-])cc2)c2cc(OC)c(OC)c(OC)c2)cc1O (some centres not stated) |  |  |  | Activity (HepG2 [1]): inactive |
| COc1ccc(CC(CCNC(=O)[C@H](CCCCNC(=O)CCC2(C)N=N2)NC(=O)CCCC[C@@H]2SC[C@@H]3NC(=O)N[C@@H]32)c2cc(OC)c(OC)c(OC)c2)cc1O (some centres not stated) |  |  |  | Activity (HepG2 [1]): inactive |
| COc1cc(O)cc(CCc2ccc(OC)c(O)c2)c1 | > 100000 | > 50000 | > 100000 |  |
| COc1cc(O)cc2c1-c1c(O)cccc1[C@@H](O)C2 | 2580 | 264 | > 100000 | IC50 [5]: 47 nM |
| COc1ccc(CC(CCNC(=O)[C@H](CCCCNC(=O)CCC2(C)N=N2)N=[N+]=[N-])c2cc(OC)c(OC)c(OC)c2)cc1O (some centres not stated) |  |  |  | inhibition (HepG2 [6]): Active |
| COc1ccc(CC(CCOC(=O)CCCCCNC(=O)CCCC[C@@H]2SC[C@@H]3NC(=O)N[C@@H]32)c2cc(OC)c(OC)c(OC)c2)cc1O (some centres not stated) |  |  |  | Activity (HepG2 [7]): inactive |
| Nc1ncnc2c1ncn2[C@@H]1O[C@@H]2CO[P@@](=O)(O)O[C@H]3[C@@H](O)[C@H](n4cnc5c(N)ncnc54)O[C@@H]3CO[P@@](=O)(O)O[C@H]2[C@H]1O |  |  |  | Ki [8]: 700 nM |
| N[C@@H](CC(=O)O)C(=O)O [ASPARTIC ACID] |  |  |  | Ki [9]: 700 nM |
| COc1cc(CCc2cc(O)c(OC)c(OC)c2)ccc1O | 1090 | > 50000 | > 100000 |  |
| COc1cc(CCc2cc(OC)c(O)c(OC)c2)ccc1O [MOSCATILIN] | 3020 | 191 | 2090 | IC50 [5]: 34 nM |
| COc1ccc(/C=C/c2cc(O)cc(O[C@@H]3O[C@H](CO)[C@@H](O)[C@H](O)[C@H]3O)c2)cc1O [RHAPONTIN] | > 100000 | > 50000 | > 100000 |  |
| OC[C@H]1O[C@@H](Oc2cccc3c2-c2c(O)cc(O)cc2C[C@H]3O)[C@H](O)[C@@H](O)[C@@H]1O | > 6420 | > 50000 | > 100000 |  |
| COc1ccc(CC(CCO)c2cc(OC)c(OC)c(OC)c2)cc1O (configuration not stated) |  |  |  | Activity (HepG2 [1]): inactive; Activity (HepG2 [10]): Active |
| COc1cc(O)cc2c1-c1c(O)cc(O)cc1[C@@H](O)C2 | > 100000 | > 50000 | > 100000 |  |
| O=C(O)CC(=O)C(=O)O [OXALOACETATE] |  | 88.8 |  | IC50 [5]: 100 nM; IC50 [11]: 100 nM; IC50 [12]: 88.8 nM |
| COc1cc(O)cc2c1-c1c(O)cccc1CC2 [HIRCINOL] | > 100000 | > 50000 | > 100000 |  |
| COc1cc(O)cc2c1-c1c(O)cc(O)cc1C[C@@H]2O | > 100000 | > 50000 | > 100000 |  |
| CCCCCCCCOC(=O)c1cc(O)c(O)c(O)c1 [OCTYL_GALLATE] |  |  |  | Ki [8]: 700 nM |
| COc1cc(O)cc(CCc2ccc(O)c(OC)c2)c1 [GIGANTOL] | 1880 | 125 | 57900 | IC50 [5]: > 50000 nM |
| COc1ccc(CCc2cc(OC)c(OC)c(OC)c2OCCOC(=O)CCCCCNC(=O)CCCC[C@@H]2SC[C@@H]3NC(=O)N[C@@H]32)cc1O |  |  |  | Activity (HepG2 [7]): inactive |
| COc1ccc(CC(O)c2cc(OC)c(OC)c(OC)c2)cc1O (configuration not stated) |  |  |  | Activity (HepG2 [10]): Active |
| COc1cc(O)c2c(c1)CCc1cccc(O)c1-2 | 1740 | 204 | 8540 | IC50 [5]: 104 nM |
| COc1ccc(CC(CCNC(=O)[C@H](CCCCNC(=O)CCCC[C@@H]2SC[C@@H]3NC(=O)N[C@@H]32)NC(=O)CCC2(C)N=N2)c2cc(OC)c(OC)c(OC)c2)cc1O (some centres not stated) |  |  |  | Activity (HepG2 [1]): inactive |
| COc1ccc(CC(CCNC(=O)COCCOCCOCCNC(=O)[C@H](CCCCNC(=O)CCCC[C@@H]2SC[C@@H]3NC(=O)N[C@@H]32)NC(=O)c2ccc(N=[N+]=[N-])cc2)c2cc(OC)c(OC)c(OC)c2)cc1O (some centres not stated) |  |  |  | Activity (HepG2 [1]): inactive |
| COc1cc(O[C@@H]2O[C@H](CO)[C@@H](O)[C@H](O)[C@H]2O)cc2ccc3cccc(O)c3c12 | 2660 | 65 | 29900 | IC50 [5]: 97 nM |
| COc1cc(O[C@@H]2O[C@H](CO)[C@@H](O)[C@H](O)[C@H]2O)cc2c1-c1c(O)cccc1[C@H](O)C2 | > 100000 | > 50000 | > 100000 |  |
| COc1cc(O)cc2c1-c1c(O)cccc1C[C@@H]2O | > 100000 | > 50000 | > 100000 |  |
| COc1ccc(CC(CCNC(=O)COCCOCCOCCNC(=O)[C@H](CCCCNC(=O)CCCC[C@@H]2SC[C@@H]3NC(=O)N[C@@H]32)NC(=O)CCC2(C)N=N2)c2cc(OC)c(OC)c(OC)c2)cc1O (some centres not stated) |  |  |  | Activity (HepG2 [1]): inactive |
| COc1ccc(CC(CCNC(=O)[C@H](CCCCNC(=O)c2ccc(N=[N+]=[N-])cc2)NC(=O)CCCC[C@@H]2SC[C@@H]3NC(=O)N[C@@H]32)c2cc(OC)c(OC)c(OC)c2)cc1O (some centres not stated) |  |  |  | Activity (HepG2 [1]): inactive |
| COc1ccc(CC(CCNC(=O)[C@H](CCCCNC(=O)CCCC[C@@H]2SC[C@@H]3NC(=O)N[C@@H]32)NC(=O)c2ccc(N=[N+]=[N-])cc2)c2cc(OC)c(OC)c(OC)c2)cc1O (some centres not stated) |  |  |  | Activity (HepG2 [1]): inactive |
